Results reported in paper PMC8154566, “Scaffold-Hopping Strategy on a Series of Proteasome Inhibitors Led to a Preclinical Candidate for the Treatment of Visceral Leishmaniasis” (Journal of Medicinal Chemistry, 2021).
Values after ≈ are worked out from the molar mass of the structure shown. Like-named read-outs stand apart in the source and are kept apart here. Marks after values point to notes of the source that are not given here.

Experiments:
L. donovani amastigotes [1] = assay: INMAC assay: intramacrophage L. donovani in differentiated THP-1 cells; type: cell-based, Leishmania donovani; conditions: Leishmania donovani, THP-1, INMAC
Summary of the method: (§1)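 Intramacrophage L. donovani amastigotes in differentiated THP-1 cells, run per an earlier protocol but with 96 h compound exposure instead of 72 h. Aqueous solubility also follows a previously described method.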

[2] = parameters: method as in PMID 30962368; conditions: after 3 h; cited from earlier work
[3] = parameters: method as in PMID 30962368; conditions: after 3 h; cited from earlier work; remark: listed apart in the source
[4] = parameters: method as in PMID 30962368; conditions: cited from earlier work
L. donovani amastigotes [5] = conditions: cited from earlier work; for LdInMac pIC50: supplementary csv, flagged as reported previously in the main tables
in vivo = type: in vivo; conditions: mouse
Description: Intramacrophage L. donovani Assay. This assay was conducted as previously described, except for compound exposure time, which was 96 h instead of 72 h.4 […]
All regulated procedures on living animals were carried out under the authority of a project license issued by the Home Office under the Animals (Scientific Procedures) Act 1986, as amended in 2012 (and in compliance with EU Directive EU/2010/63). Infected animals had access to food and water ad libitum and were housed under a 12 hour light/dark photoperiod. Animals used in these experiments were female NMRI and Balb/c mice (Harlan, UK).
Test compound DDD01008714 was dosed orally (P.O.) at 10 mg free base/kg (dose volume 10 mL/kg; dose vehicle: 10% (vol/vol) dimethyl sulfoxide (DMSO), 40% polyethylene glycol 400 (PEG400) and 50% deionized water) to female NMRI mice (n = 3) or intravenously (I.V.) at 3 mg free base/kg (dose volume 5 mL/kg; dose vehicle: 10% (vol/vol) dimethyl sulfoxide (DMSO) and 90% Saline) to female Balb/c mice (n = 3). Blood samples (10 μL) where taken from the tail vein of […]
samples for I.V. leg only) and mixed with two volumes of deionized water (20 μL). After suitable sample preparation, the concentration of test compound in the whole blood from treated mice was determined by UPLC-MS/MS using a Quattro Premier XE (Waters, USA). Pharmacokinetic parameters were derived from the mean blood concentration time curve using PK solutions software v 2.0 (Summit Research Services, USA). […]
of concentration vs. Time for 4, dosed at 10 mg/kg. Extrapolated to 50 mg/kg assuming a linear dose increase, showing potential coverage above EC90 for approximately 6 hours […]
(1 picture or pasted object on this page, not shown here)

[6] = cited from earlier work
[7] = tested on: infected mouse model of VL; assay: Infected mouse model of VL; type: in vivo; conditions: 50 mg/kg ip, b.i.d for 5 days
Description: In vivo Mouse Efficacy Studies. In vivo studies were carried out as previously described, with minor modifications.7 Briefly: Control drug used was Miltefosine (30 mg/kg orally, twice daily for 5 days), vehicle used was 10% (v/v) dimethyl sulfoxide (DMSO), 40% polyethylene glycol 400, and 50% deionized water (10 Ml/kg orally, twice daily for 5 days) and mice were treated with test compound intraperitoneally (50 mg/kg twice daily for 5 days).

[8] = Kinetic aqueous solubility by CLND; type: physicochemical; conditions: CLND
Summary of the method: as §1

THP-1 cells = conditions: cited from earlier work; for THP1 pIC50: supplementary csv, flagged as reported previously in the main tables
[9] = supplementary csv; flagged as reported previously in Table 5; cited from earlier work
[10] = female, Balb/c, in vivo, iv PK 3 mg/kg
[11] = female, NMRI, in vivo, po PK 10 mg/kg

O=C(Nc1ccc(F)c(-c2cn3cc(N4CCOCC4)cnc3n2)c1)N1CCCC1 [Compound 4]
EC90 (L. donovani amastigotes [1]; pEC90 5.7 expressed as concentration, read-out: EC90): 0.78 µg/mL | EC90 (L. donovani amastigotes [1]; read-out: pEC90 (converted)): 2000 nM | human plasma stability, compound remaining [2]: 100% | mouse plasma stability, compound remaining [3]: 100% | Ames assay result [4]: positive | INMAC pEC50 (L. donovani amastigotes [5]; Table 1, five independent replicates, SD ≤0.2): 6.2 | INMAC pEC50 (L. donovani amastigotes [5]; Table 2): 6.2^e | LdInMac pIC50 (L. donovani amastigotes [5]): 6.2 | AUC at 24 h (in vivo; [10]): 2250 ng·h/mL | half-life at 24 h (in vivo; [10]): 30 min | bioavailability at 24 h (in vivo; female, NMRI, in vivo, po PK 10 mg/kg vs iv 3 mg/kg): 57% | AUC at 24 h (in vivo; [11]): 4300 ng·h/mL | Cmax at 24 h (in vivo; [11]): 1300 ng/mL | Tmax at 24 h (in vivo; [11]): 30 min | Clb (in vivo; iv PK 3 mg/kg): 22 mL/min/kg | Vdss (in vivo; listed under po PK (10 mg/kg)): 0.8 L/kg | time with blood levels above EC90 (in vivo; oral dose of 10 mg/kg): around 2 h | CLi ([6]; Table 1, mouse liver microsomes): <0.5 mL/min/g | Mouse CLi ([6]; Table 2, mouse liver microsomes): <0.5^e mL/min/g | Cli (mouse, ml/min/g) ([6]; supplementary csv, mouse, flagged as reported previously in the main tables): <0.5 mL/min/g | % reduction in parasitemia [7]: 98% | solubility ([8]; Table 1, kinetic solubility, read-out: aqueous solubility): 150 µM (≈ 61.6 µg/mL) | solubility ([8]; Table 2, kinetic, read-out: Aq. solubility): 150 µM (≈ 61.6 µg/mL) | THP-1 cells pEC50 (THP-1 cells; Table 1): <4.3 | THP1 pIC50 (THP-1 cells): <4.3

O=C(Nc1ccc(F)c(-c2nc3cc(N4CCOCC4)cnn3n2)c1)N1CCCC1 [Compound 24, N-(4-Fluoro-3-(7-morpholino-[1,2,4]triazolo[1,5-b]pyridazin-2-yl)phenyl)pyrrolidine-1-carboxamide]
INMAC pEC50 (L. donovani amastigotes [5]; Table 5): 6.1 | LdInMac pIC50 (L. donovani amastigotes [5]): 6.1 | Aqueous Solubility [9]: 420 µM | THP-1 pEC50 (THP-1 cells; Table 5): <4.3 | THP1 pIC50 (THP-1 cells): <4.3
